The source of these data is article PMC12951551, “Do Amino-Oxetanes Resemble Amides? A Matched Molecular Pairs Property and Structural Comparison” (Journal of Medicinal Chemistry, 2026).

Converted amounts (≈) assume the structure as drawn.

Data set [1] can be described thus: Experimental pKaH (amine basicity). Format: physicochemical. The note with it: for pKa: Table S2; for pKaH: text and Figure 6. The source says:
The influence of basicity is an ongoing rationale for inclusion of the oxetanes in drug candidates, providing the potential to attenuate off-target effects including hERG channel inhibition. […] As comparison against the benzamide analogue is not possible, we instead looked at the head-to-head comparison between amino-oxetane 4a and benzylamine 18 (Figure ).

The next data set can be described thus: Kinetic solubility. The data set is classed as physicochemical. The note with it: for solubility at 24 h: aqueous pH buffer, aqueous buffer, kinetic from dmso stock, 37 °C, 600 µM start. On the procedure:
(§1) Aqueous buffer preparation: pH 3: 50 µL of 1N hydrochloric acid was added to 500 mL of deionized water. The solution was titrated with 1N hydrochloric acid to pH 3, and back titrated with 1N sodium hydroxide. pH 7.4: 100 mM sodium phosphate buffer is made by adding 56.4 g of dibasic sodium phosphate and 10.3 g of monobasic sodium phosphate to 4 L of deionized water. 250 µL of 100 mM sodium phosphate buffer was diluted with 250 µL of deionized water. The solution was titrated with 1N hydrochloric acid to pH 7.4, and back titrated with 1N sodium hydroxide. pH 10: Fisher Scientific pH 10 buffer (SB116-500) containing potassium hydroxide, potassium carbonate, and potassium […]
pH 12.8: 30 mL of 1N NaOH was added to 200 mL of deionized water. The solution was titrated with 1N sodium hydroxide to pH 12.8 and back titrated with 1N hydrochloric acid.
Kinetic solubility: Samples were diluted to 600 µM in the appropriate pH buffer (pH: 3, 7.4, 10) and to 600 µM (assumed 100% solubility) in a DMSO standard. Samples were mixed thoroughly and incubated at 37 °C for 24 h.
Following incubation, pH samples were transferred to a […] PVDF (low binding) and filtered to remove any precipitate. The filtrate was collected and analyzed via MS/MS. The ratio of MS response (DMSO:pH) is taken and multiplied by the initial 600 µM concentration to determine the concentration (solubility) of the samples in pH buffers. […]
(§2) Permeability assay (RRCK): Ralph Russ canine kidney cells were used for permeability measurements using a cell monolayer in 96-transwell format. The detailed assay conditions have been reported previously.9 Test compounds were added to the donor wells and a buffer was added to the receiver wells to start the apical to basolateral transport assay.
(§3) Time 0 and 1.5 h incubation samples were taken for LC-MS/MS analysis. Apparent permeability (Papp) was calculated using the equation below (1), where Area is the surface area of the cell monolayer (0.0625 cm2), CD(0) is the […]

Data set [2] is described as follows: Permeability assay (RRCK). The data set is classed as in vitro ADME, canine. The settings on record: dog, MDCK, apical to basolateral, average of 2 runs, footnote b = only one replicate.
A further data set has as its system human hepatocytes. Nature of the data set: Human Hepatocyte (HHEP) stability assay, clearance. The data set is classed as in vitro ADME. The settings on record: human hepatocytes, 0.5 million cells/mL, 1 µM test compound. On the procedure:
Human Hepatocyte (HHEP) assay: The high throughput HHEP stability assay was performed in a 384-well format (Greiner Bio-One, Monroe, NC). The cryopreserved HHEP were thawed, and re-suspended in Williams E medium (WEM, custom formula number 91-5233EC; Invitrogen, Grand Island, NY) supplemented with HEPES and Na2CO3. The cells were counted using the Trypan Blue exclusion method. A multidrop liquid dispenser (Multidrop DW, Thermo Scientific, Waltham, MA) was used to add the HHEP suspensions to the 384-well plates. The cell plates were covered and transferred to a Cytomat 2 incubator (ThermoFisher) and Biomek i7 (Beckman Coulter, Indianapolis, IN), equipped with three 3position MéCour heat exchangers. Test compounds were diluted on the Biomek i7 with buffer (15 µL) and added to the HHEP (30 µL). The final incubation contained 0.5 million cells/mL and 1 µM test compound in 45 µL total volume containing 0.01% DMSO. The incubation was carried out at 37 °C in the Cytomat 2 incubator (relative humidity ≥ 90%, 5% CO2/95% air). At various time points (2, 4, 11, 45, 75, 120, and 240 min), the plate was pulled out from the incubator by the Biomek i7 robot and put on the MéCour heated exchanger. Samples (3 µL) were transferred to a 384-well plate containing 30 µL acetonitrile with an internal standard (IS) to quench the reaction. Water (60 µL) was added to the quenched plate to dilute the organic solvent content for LC-MS/MS analysis. The plates were centrifuged at 3000 rpm for 10 min at 4 °C, sealed and subsequently analyzed using LC-MS/MS without further transfer of the supernatant.
Propranolol (CYP2D6), midazolam (CYP3A) and triazolam (CYP3A, low clearance), naloxone (UGT2B7), carbazeran (AO), and verapamil (CYP3A, CYP2C8) were used as positive controls. For CYP inhibition study, 1 mM ABT (a pan-cYP inhibitor) was pre-incubated with HHEP for 30 minutes at 37 °C before adding test compounds. Values are n >3 unless […]
as §2, §3

The nature of data set [3]: Shake flask LogD (SFLogD) assay. The data set is classed as physicochemical. The note with it: for logD: pH = 7.4, octanol/water shake flask, average of 2 runs unless otherwise stated. As to the method:
as §2, §3

Data set [4] in a line: Chemical (pH) stability assay. The settings on record: 24 h under acidic, neutral, and basic conditions. Format: physicochemical. On the procedure: Chemical stability assay: The chemical stability assay was performed in 384 well plate format (volume = […]).
Plates were prefilled with 70 µL of the appropriate buffer (pH 1.2, 7.4, 10) after which the wells were spiked with 5 µL of test compounds (1 mM). Samples were incubated for their timepoint of interest (1 h, 4 h, 24 h) at 37 °C after which the samples were diluted in MeCN (and pH 12.8 buffer for experiment at pH 1.2), mixed with an internal standard and […]
as §1, §3

Where [5] appears, read: across acidic, neutral, and basic conditions, compared with benzamide counterpart.

Take `COc1ccc(CN2CCOCC2)cc1` [compound 18, 4-(4-Methoxybenzyl)Morpholine]: in data set [1], the pKa (as a rule, the pH at which an ionisable group is half protonated) is 7.25 and the pKaH was 7.25.

`COc1ccc(C2(N3CCOCC3)COC2)cc1` [4a, 4-(3-(4-Methoxyphenyl)Oxetan-3-yl)Morpholine]: the “Kinetic solubility, in words” value in the data set “Kinetic solubility” (setting [5]) is on record as “solubility comparable to their analogous benzamides”. Also, the solubility (as a rule, the dissolved amount per volume that the medium holds) at 24 h in “Kinetic solubility” (pH 3) stood at 486 µM (≈ 121 µg/mL); in “Kinetic solubility” (pH 7.4), 556 µM (≈ 139 µg/mL); in “Kinetic solubility” (pH 10) it was 492 µM (≈ 123 µg/mL). Further, in data set [2], the Papp – broadly, the rate of passage across a membrane or cell layer, normalised by area and donor concentration – at 1.5 h came out at 39.2 ×10⁻⁶ cm/s. This compound also came in with an HHEPG clearance with human hepatocytes of 4 μL min^−1 million^−1. Also, in data set [3], the log distribution coefficient (logD) – broadly, lipophilicity at a set pH, counting ionised and neutral species – was 1.17. In data set [1], this compound gave a pKa of 4.61. The compound also came in with a pKaH in data set [1] of 4.61.

Take `COc1ccc(C2(NCC34C[C@H]5C[C@@H](C3)C[C@@H](C4)C5)COC2)cc1` [1a, N-(((3R,5R,7R)-Adamantan-1-yl)Methyl)-3-(4-Methoxyphenyl)Oxetan-3-Amine]: the “pH stability, in words” value in data set [4] was “reduced stability under neutral and basic conditions”. For the same compound, the solubility at 24 h in “Kinetic solubility” (pH 3) was 533 µM (≈ 175 µg/mL); in the data set “Kinetic solubility” (pH 7.4), under 8.9 µM; in “Kinetic solubility” (pH 10), under 0.3 µM. In addition, the “Kinetic solubility, in words” value in the data set “Kinetic solubility” (pH 3) is listed as “markedly improved solubility”. In data set [2], this compound came in with a Papp at 1.5 h of 25.8 ×10⁻⁶ cm/s. The same compound yielded a logD in data set [3] of 3.6.

Take `COc1ccc(CNCc2ccccc2)cc1` [S1]: in data set [1], the pKa was determined as 8.81.

With `O=S(=O)(c1ccccc1)c1ccc(C2(N3CCOCC3)COC2)cc1` [10a, 4-(3-(4-(Phenylsulfonyl)Phenyl)Oxetan-3-yl)Morpholine], in data set [2], the Papp at 1.5 h is 36.7 ×10⁻⁶ cm/s. This compound also displayed an HHEPG clearance in the data set on human hepatocytes of 4 μL min^−1 million^−1. The “Change in SFlogD of the carbonyl-to-oxetane replacement” value in data set [3] (pH 7.4, amino-oxetane versus matched benzamide) is “+0.44”. In data set [3], this compound had a logD of 1.55. In data set [1], this compound returned a pKa of 3.08.

With `COc1ccc(C(=O)Nc2ccc(OC)nc2)cc1` [8b, 4-Methoxy-N-(6-Methoxypyridin-3-yl)Benzamide], the figures for the solubility at 24 h in the data set “Kinetic solubility” (pH 3), in the data set “Kinetic solubility” (pH 7.4) and in the data set “Kinetic solubility” (pH 10) were 50 µM (≈ 12.9 µg/mL), 31 µM (≈ 8.01 µg/mL) and 24 µM (≈ 6.2 µg/mL), respectively. In data set [2], this compound came in with a Papp at 1.5 h of 20.9 ×10⁻⁶ cm/s. The compound further gave an HHEPG clearance in the data set on human hepatocytes of 13 μL min^−1 million^−1. In data set [3], this compound registered a log distribution coefficient (logD) of 2.49.

In the case of `COc1ccc(C(=O)Nc2ccc(NC(C)=O)cc2)cc1` [6b, N-(4-Acetamidophenyl)-4-Methoxybenzamide], the solubility at 24 h in the data set “Kinetic solubility” (pH 3) is 13 µM (≈ 3.7 µg/mL); in “Kinetic solubility” (pH 7.4), 10 µM (≈ 2.84 µg/mL); in the data set “Kinetic solubility” (pH 10), 8 µM (≈ 2.27 µg/mL). The Papp at 1.5 h in data set [2] came out at 14 ×10⁻⁶ cm/s. For the same compound, the HHEPG clearance in the data set on human hepatocytes is 57 μL min^−1 million^−1. Also, in data set [3], the log distribution coefficient (logD) turned out to be 1.92.

For `COc1ccc(C2(Nc3ccc(OC)nc3)COC2)cc1` [8a, 6-Methoxy-N-(3-(4-Methoxyphenyl)Oxetan-3-yl)Pyridin-3-Amine], the “Kinetic solubility, in words” value in the data set “Kinetic solubility” (setting [5]) is on record as “higher solubility”. Besides, the solubility at 24 h in “Kinetic solubility” (pH 3) was 412 µM (≈ 118 µg/mL); in the data set “Kinetic solubility” (pH 7.4), 358 µM (≈ 103 µg/mL); in the data set “Kinetic solubility” (pH 10), 326 µM (≈ 93.3 µg/mL). The apparent permeability coefficient (Papp) at 1.5 h in data set [2] was 37.2 ×10⁻⁶ cm/s. In addition, the HHEPG clearance with human hepatocytes was 42 μL min^−1 million^−1. The compound also came in with a logD in data set [3] of 2.54.
